IC50 and DSF data for 22 compounds are collected here from patent US20260265244A1, “HETEROCYCLIC COMPOUNDS AS STING ANTAGONISTS” (Boehringer Ingelheim International GmbH, priority 2022, published 2026).

Structures are written as SMILES.

What is called IC50 is the concentration that gives 50% inhibition.

Test [1] addresses T1, human STING WT (R232) (Homo sapiens, UniProt Q86WV6, H232R).
T1 construct: purchased Cisbio 64BDSTGPEG
Briefly: Human STING HTRF binding assay (competitive, Cisbio 64BDSTGPEG). In outline: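 Competitive HTRF: 6His-tagged human STING WT R232 binding domain (residues 138-379) with anti-6His Cryptate antibody and d2-labeled STING ligand, 180 min at room temperature, 1% DMSO, 8 concentrations from 10 μM or 1 μM top in ~1:5 steps. HTRF ratios were calibrated to a cGAMP standard curve and IC50 obtained by 4-parameter logistic fit.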

Test [2] concerns the target T2, cGAMP binding domain of wild-type (GRR) human STING, residues 155-341 (Homo sapiens, UniProt Q86WV6, H232R).
T2 construct: His-TEV-hSTING (WT); TEV protease cleavage site (N); made in house; host or cells: E. coli BL21 DE3
Briefly: Increase of stability of STING protein against thermal denaturation, Differential Scanning Fluorimetry (DSF). The method in brief: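 3 µM His-tagged protein with 100 uM compound, 5×SYPRO Orange, 2% DMSO in 20 mM Tris, 150 mM NaCl, pH7.5; 15–95 °C ramp in 0.5 °C steps (15 s/cycle). Tm from Boltzmann fit of the dye melt curve, duplicates averaged, repeated if SD>1.5 °C; ΔTm = Tm with compound minus Tm of protein alone.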
On the technique in general: DSF heats the sample and reads unfolding from a dye or from intrinsic fluorescence.

T2 sequence (Q86WV6 with tags, fused parts or gaps H232R): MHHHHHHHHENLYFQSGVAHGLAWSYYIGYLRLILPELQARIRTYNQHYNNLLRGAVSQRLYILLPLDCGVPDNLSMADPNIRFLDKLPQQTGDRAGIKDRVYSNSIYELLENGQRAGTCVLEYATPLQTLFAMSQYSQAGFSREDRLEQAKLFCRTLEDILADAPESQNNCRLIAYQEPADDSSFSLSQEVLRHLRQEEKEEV
T1 sequence (Q86WV6 138-379 H232R): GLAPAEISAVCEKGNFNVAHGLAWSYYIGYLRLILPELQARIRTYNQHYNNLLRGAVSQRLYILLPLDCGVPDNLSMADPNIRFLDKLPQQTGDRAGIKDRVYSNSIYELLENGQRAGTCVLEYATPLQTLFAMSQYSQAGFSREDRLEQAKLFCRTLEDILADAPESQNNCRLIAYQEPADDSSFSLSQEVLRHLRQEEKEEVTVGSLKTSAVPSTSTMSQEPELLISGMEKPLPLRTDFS

`Cc1nc2nn(C)cc2cc1-n1nc(-c2cccc3nn(C[C@H](OCCF)c4ccccc4)cc23)c(C(C)C)c1C` [Example 78, 4-(1-{2,6-dimethyl-2H-pyrazolo[3,4-b]pyridin-5-yl}-5-methyl-4-(propan-2-yl)-1H-pyrazol-3-yl)-2-[(2R)-2-(2-fluoroethoxy)-2-phenylethyl]-2H-indazole] had an IC50 in test [1] of 16.7 nM. Besides, in test [2], the DSF amounted to 24 K.

`Cc1nc2nn(C)cc2cc1-n1nc(-c2cccc3nn(CC(O)C4CCCCC4)cc23)c(C(C)C)c1C` (centres unmarked) [Example 83, 1-cyclohexyl-2-[4-(1-{2,6-dimethyl-2H-pyrazolo[3,4-b]pyridin-5-yl}-5-methyl-4-(propan-2-yl)-1H-pyrazol-3-yl)-2H-indazol-2-yl]ethan-1-ol]: the IC50 in test [1] came to 23.7 nM. Also, in test [2], the DSF stood at 24 K.

On to `Cc1c(C(C)C)c(-c2cccc3nn(C[C@H](O)c4ccccc4)cc23)nn1-c1cc2cn(C)nc2nc1C(C)(C)O` [Example 89, 2-[5-(3-{2-[(2R)-2-hydroxy-2-phenylethyl]-2H-indazol-4-yl}-5-methyl-4-(propan-2-yl)-1H-pyrazol-1-yl)-2-methyl-2H-pyrazolo[3,4-b]pyridin-6-yl]propan-2-ol], for which the concentration for half-maximal inhibition (IC50) in test [1] came out at 17.2 nM. In test [2], this compound returned a DSF of 24 K.

In test [1], `Cc1c(C(C)C)c(-c2cccc3nn(C[C@H](O)c4ccccc4)cc23)nn1-c1ccn2c(C(F)F)nnc2c1C1CC1` [Example 76] gave an IC50 of 17.4 nM. In test [2], this compound had a DSF of 26 K.

Regarding `CNc1nc2nn(C)cc2cc1-n1nc(-c2cccc3nn(C[C@H](O)c4ccccc4)cc23)c(C(C)C)c1C` [Example 84, (1R)-2-(4-{5-methyl-1-[2-methyl-6-(methylamino)-2H-pyrazolo[3,4-b]pyridin-5-yl]-4-(propan-2-yl)-1H-pyrazol-3-yl}-2H-indazol-2-yl)-1-phenylethan-1-ol], the IC50 in test [1] is 21 nM. The compound also gave a DSF in test [2] of 27 K.

As to `Cc1cc([C@@H](O)Cn2cc3c(-c4nn(-c5cc6cn(C)nc6nc5C)c(C)c4C(C)C)cccc3n2)ccn1` [Example 82, (1R)-2-[4-(1-{2,6-dimethyl-2H-pyrazolo[3,4-b]pyridin-5-yl}-5-methyl-4-(propan-2-yl)-1H-pyrazol-3-yl)-2H-indazol-2-yl]-1-(2-methylpyridin-4-yl)ethan-1-ol], in test [1], the IC50 worked out at 3.2 nM. Further, the DSF in test [2] is 27 K.

Consider `Cn1cc2cc(-c3nc(-c4cccc5nn(C[C@H](O)c6ccc(OCC#N)cc6)cc45)c(C4CC4)n3C)c(C3CC3)nc2n1` [Example 90, 2-{4-[(1R)-2-[4-(5-cyclopropyl-2-{6-cyclopropyl-2-methyl-2H-pyrazolo[3,4-b]pyridin-5-yl}-1-methyl-1H-imidazol-4-yl)-2H-indazol-2-yl]-1-hydroxyethyl]phenoxy} acetonitrile], for which, in test [1], the IC50 was 19.9 nM. In test [2], this compound had a DSF of 29 K.

For `CCCO[C@@H](Cn1cc2c(-c3nn(-c4cc5cn(C)nc5nc4C)c(C)c3C(C)C)cccc2n1)c1ccccc1` [Example 81, 4-(1-{2,6-dimethyl-2H-pyrazolo[3,4-b]pyridin-5-yl}-5-methyl-4-(propan-2-yl)-1H-pyrazol-3-yl)-2-[(2R)-2-phenyl-2-propoxyethyl]-2H-indazole], the IC50 in test [1] amounted to 31.1 nM. In addition, in test [2], the DSF came out at 22 K.

The compound `Cc1c(C(C)C)c(-c2cccc3nn(C[C@H](O)c4ccccc4)cc23)nn1-c1cc2cn(C)nc2nc1C1(C)CC1` [Example 80, (1R)-2-(4-{5-methyl-1-[2-methyl-6-(1-methylcyclopropyl)-2H-pyrazolo[3,4-b]pyridin-5-yl]-4-(propan-2-yl)-1H-pyrazol-3-yl}-2H-indazol-2-yl)-1-phenylethan-1-ol] had an IC50 in test [1] of 17.5 nM. The DSF in test [2] was determined as 26 K.

The compound `Cc1nc2nn(C)cc2cc1-n1nc(-c2cccc3nn(C[C@H](OCCC(C)(C)O)c4ccccc4)cc23)c(C(C)C)c1C` [Example 74, 4-[(1R)-2-[4-(1-{2,6-dimethyl-2H-pyrazolo[3,4-b]pyridin-5-yl}-5-methyl-4-(propan-2-yl)-1H-pyrazol-3-yl)-2H-indazol-2-yl]-1-phenylethoxy]-2-methylbutan-2-ol] had a 50% inhibitory concentration (IC50) in test [1] of 16.9 nM. The DSF in test [2] is 25 K.

`Cc1nc2nn(C)cc2cc1-n1nc(-c2cccc3nn(C[C@H](O)c4ccccc4)cc23)c(C2(C)CC2)c1C` [Example 92, (1R)-2-[4-(1-{2,6-Dimethyl-2H-pyrazolo[3,4-b]pyridin-5-yl}-5-methyl-4-(1-methylcyclopropyl)-1H-pyrazol-3-yl)-2H-indazol-2-yl]-1-phenylethan-1-ol]: the IC50 in test [1] worked out at 4.3 nM. Further, the DSF in test [2] is reported as 24 K.

`CCc1c(-c2cccc3nn(C[C@H](O)c4ccccc4)cc23)nn(-c2cc3cn(C)nc3nc2C)c1CC` [Example 93, (1R)-2-[4-(1-{2,6-dimethyl-2H-pyrazolo[3,4-b]pyridin-5-yl}-4,5-diethyl-1H-pyrazol-3-yl)-2H-indazol-2-yl]-1-phenylethan-1-ol] displayed an IC50 in test [1] of 17.4 nM. The DSF in test [2] is recorded as 26 K.

With `Cc1c(-n2nc(-c3cccc4nn(C[C@H](O)c5ccccc5)cc34)c(C(C)C)c2C)ccn2c(C)cnc12` [Example 94, (1R)-2-[4-(1-{3,8-dimethylimidazo[1,2-a]pyridin-7-yl}-5-methyl-4-(propan-2-yl)-1H-pyrazol-3-yl)-2H-indazol-2-yl]-1-phenylethan-1-ol], in test [1], the IC50 turned out to be 17.1 nM. The DSF in test [2] was 27 K.

`Cc1c(C(C)C)c(-c2cccc3nn(C[C@H](O)c4ccccc4)cc23)nn1-c1cc2cn(C)nc2nc1N(C)C` [Example 87, (1R)-2-(4-{1-[6-(dimethylamino)-2-methyl-2H-pyrazolo[3,4-b]pyridin-5-yl]-5-methyl-4-(propan-2-yl)-1H-pyrazol-3-yl}-2H-indazol-2-yl)-1-phenylethan-1-ol] returned a half-inhibitory concentration (IC50) in test [1] of 20.2 nM. In test [2], this compound registered a DSF of 24 K.

In turn, `COCCO[C@@H](Cn1cc2c(-c3nn(-c4cc5cn(C)nc5nc4C)c(C)c3C(C)C)cccc2n1)c1ccccc1` [Example 85, 4-(1-{2,6-dimethyl-2H-pyrazolo[3,4-b]pyridin-5-yl}-5-methyl-4-(propan-2-yl)-1H-pyrazol-3-yl)-2-[(2R)-2-(2-methoxyethoxy)-2-phenylethyl]-2H-indazole] yielded an IC50 in test [1] of 15.9 nM. This compound gave a DSF in test [2] of 23 K.

As to `COC(C)c1nc2nn(C)cc2cc1-n1nc(-c2cccc3nn(C[C@H](O)c4ccccc4)cc23)c(C(C)C)c1C` (some centres unmarked) [Example 75], in test [1], the IC50 amounted to 9.8 nM. In addition, the DSF in test [2] is 28 K.

In the case of `C=CCO[C@@H](Cn1cc2c(-c3nn(-c4cc5cn(C)nc5nc4C)c(C)c3C(C)C)cccc2n1)c1ccccc1` [Example 79, 4-(1-{2,6-dimethyl-2H-pyrazolo[3,4-b]pyridin-5-yl}-5-methyl-4-(propan-2-yl)-1H-pyrazol-3-yl)-2-[(2R)-2-phenyl-2-(prop-2-en-1-yloxy)ethyl]-2H-indazole], in test [1], the IC50 is 20.1 nM. Further, in test [2], the DSF is 23 K.

With `Cc1nc2nn(C)cc2cc1-n1nc(-c2cccc3nn(CC(O)c4ccc(Br)cc4)cc23)c(C(C)C)c1C` (centres unmarked) [Example 88, 1-(4-Bromophenyl)-2-[4-(1-{2,6-dimethyl-2H-pyrazolo[3,4-b]pyridin-5-yl}-5-methyl-4-(propan-2-yl)-1H-pyrazol-3-yl)-2H-indazol-2-yl]ethan-1-ol], the IC50 in test [1] was 97.9 nM. In test [2], this compound displayed a DSF of 25 K.

Compound `Cc1c(-n2nc(-c3cccc4nn(C[C@H](O)c5ccccc5)cc34)c(C(C)C)c2C)ccn2c(C)nnc12` [Example 86, (1R)-2-[4-(1-{3,8-dimethyl-[1,2,4]triazolo[4,3-a]pyridin-7-yl}-5-methyl-4-(propan-2-yl)-1H-pyrazol-3-yl)-2H-indazol-2-yl]-1-phenylethan-1-ol] displayed an IC50 in test [1] of 6.9 nM. Moreover, in test [2], the DSF stood at 28 K.

In test [1], `[2H][C@](O)(Cn1cc2c(-c3nn(-c4cc5cn(C)nc5nc4C)c(C)c3C(C)C)cccc2n1)c1ccccc1` [Example 3, (1R)-2-[4-(1-{2,6-dimethyl-2H-pyrazolo[3,4-b]pyridin-5-yl}-5-methyl-4-(propan-2-yl)-1H-pyrazol-3-yl)-2H-indazol-2-yl]-1-phenyl(1-^2H)ethan-1-ol] yielded an IC50 of 5.1 nM. Moreover, the DSF in test [2] is reported as 28 K.

In test [1], `Cn1cc([C@@H](O)Cn2cc3c(-c4nc(-c5cc6cn(C)nc6nc5C5CC5)n(C)c4C4CC4)cccc3n2)cn1` [Example 91, (1R)-2-[4-(5-cyclopropyl-2-{6-cyclopropyl-2-methyl-2H-pyrazolo[3,4-b]pyridin-5-yl}-1-methyl-1H-imidazol-4-yl)-2H-indazol-2-yl]-1-(1-methyl-1H-pyrazol-4-yl)ethan-1-ol] gave a concentration for half-maximal inhibition (IC50) of 7.6 nM. Moreover, in test [2], the DSF came out at 29 K.

Compound `Cc1nc2nn(C)cc2cc1-n1nc(-c2cccc3nn(C[C@H](O)c4ccccc4)cc23)c(C(C)CO)c1C` (stereo partly drawn) [Example 95, 2-(1-{2,6-dimethyl-2H-pyrazolo[3,4-b]pyridin-5-yl}-3-{2-[(2R)-2-hydroxy-2-phenylethyl]-2H-indazol-4-yl}-5-methyl-1H-pyrazol-4-yl)propan-1-ol] returned an IC50 in test [1] of 11.4 nM. In test [2], this compound came in with a DSF of 24 K.
